In brackets after ≈: the same amount, converted by molar mass. Starred links: 1 amine or outer side, 2 acyl side, 3 side chain; linkers in the order of their positions; H or OH if unused. Non-standard residues stand in square brackets, D forms with d. Residues, ends and D or L forms follow the SMILES beside them. *: point of attachment. X1 = N[C@@H](CC(=O)[*:2])[C@H](Cc1ccccc1)N[*:1]; Isovaleryl = CC(C)CC(=O)*

This is an account of results in patent US9656949B2, “Substituted carboxylic acid derivatives as aggrecanase inhibitors for the treatment of osteoarthritis” (MERCK PATENT GMBH, priority 2013, dated 2017).

Data set [1] has as its target T1, human recombinant AdamTS-5 (Homo sapiens, UniProt Q9UNA0).
T1 construct: purchased R&D systems, Wiesbaden, Germany
T1 sequence (Q9UNA0 262-930): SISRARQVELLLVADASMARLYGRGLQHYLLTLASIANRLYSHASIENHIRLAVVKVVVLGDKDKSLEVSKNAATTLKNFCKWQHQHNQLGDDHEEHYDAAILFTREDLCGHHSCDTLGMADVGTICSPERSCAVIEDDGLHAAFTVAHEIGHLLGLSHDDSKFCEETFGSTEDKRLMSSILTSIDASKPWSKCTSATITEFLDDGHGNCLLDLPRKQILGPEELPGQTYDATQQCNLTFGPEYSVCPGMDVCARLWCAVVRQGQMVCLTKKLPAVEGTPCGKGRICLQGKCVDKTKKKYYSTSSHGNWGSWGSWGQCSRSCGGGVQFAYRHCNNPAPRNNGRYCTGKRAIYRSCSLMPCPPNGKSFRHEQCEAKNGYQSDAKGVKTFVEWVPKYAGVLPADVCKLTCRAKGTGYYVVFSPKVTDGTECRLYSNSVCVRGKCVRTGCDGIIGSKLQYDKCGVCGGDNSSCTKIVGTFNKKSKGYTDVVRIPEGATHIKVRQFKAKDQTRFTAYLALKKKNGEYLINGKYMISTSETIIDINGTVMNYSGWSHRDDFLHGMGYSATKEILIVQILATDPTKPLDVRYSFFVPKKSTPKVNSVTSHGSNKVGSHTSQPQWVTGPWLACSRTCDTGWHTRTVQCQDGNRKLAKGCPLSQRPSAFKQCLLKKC
Kind of data set: Biochemical activity testing of ADAMTS-5: aggrecan peptide cleavage assay (AlphaScreen). The following applies: 4.5 nM human recombinant AdamTS-5, biotinylated 43mer aggrecan peptide, 180 min at 37° C.; read-out: IC50 [ADAM-NTS5]M. The procedure: ADAMTS-5 is a metallo protease with glutamyl-endoprotease activity and cleaves aggrecan core protein at E373-A374 in the interglobular domain. To fully analyse the inhibitory potential of compounds on AdamTS-5 activity an Alphascreen® assay with a biotinylated 43mer aggrecan oligopeptide as substrate was performed. Cleavage by ADAMTS-5 caused production of a neoepitop N-terminus ARGS at the C-terminal fragment. The detection of this product is performed with streptavidin-AlphaScreen® donor beads binding to the biotin label and an anti-neoepitop (“ARGSV”) antibody that anchors anti-mouse IgG-coated AlphaLisa® acceptor beads to the other end of the generated fragment. Thereby, donor and acceptor beads get in proximity and a luminescence Alphascreen® signal is generated via the release of singlet oxygen. The cleavage activity was detectable directly by the increase in Alphascreen® signal.
The aggrecan peptide cleavage assay was performed as 384 well AlphaScreen® (Perkin Elmer) assay format in Perkin Elmer 384 AlphaPlate (proxiplate) shallow well microtiter plates and was used for high throughput screen in a total assay volume of 10 μl. 4.5 nM human recombinant AdamTS-5 (R&D systems, Wiesbaden, Germany) and 30 nM biotinylated peptide […]-K(bio) (custom-made, Biosynthan, Berlin, Germany) as substrate were incubated in a total volume of 6 μl (100 mM Tris/HCl, 150 mM NaCl, 10 mM CaCl2, 0.05% Brij®-35, 1% DMSO, 0.084% BSA, pH 7.5) in the absence or presence of the test compound (10 dilution concentrations) for 180 min at 37° C. The reaction was stopped and the first detection step performed by the addition of 2 μl detection solution 1 (48 mM EDTA, 8 nM aggrecan antibody N-term neoepitope ARG, mouse monoclonal BC3 antibody (MDBioproducts, Egg, Switzerland), 100 μg/ml Streptavidin Alphascreen® donor beads (Perkin Elmer, Rodgau, Germany) in 100 mM Tris/HCl, 150 mM NaCl, 0.05% Brij®-35, 0.1% BSA, pH 7.5). After an one-hour incubation at 37° C. 2 μl of the second detection solution (25 μg/ml anti-mouse AlphaLisa® acceptor beads (Perkin Elmer, Rodgau, Germany) in 100 mM Tris/HCl, 150 mM NaCl, 0.05% Brij®-35, 0.1% BSA, pH 7.5 were added. The plates were incubated for […] in the dark.
The AlphaScreen signal was measured with an Envision multimode reader (Perkin Elmer LAS Germany GmbH) with the Alphascreen protocol from Perkin Elmer (laser mode) emission wavelength 570 nm. The full value used was the inhibitor-free reaction. For the zero value a pharmacological reference was used. The inhibitory values (IC50) for the compounds were determined using either the program Symyx Assay Explorer® or Condosseo® from GeneData.
In general terms: Bead proximity is the source of the signal in Alpha formats.

Data set [2] has as its system bovine cartilage explants. As to the kind of experiment: GAG-Assay (GAG release from bovine cartilage explants). It is filed as cell-based. Particulars: Bos taurus, GAG release into supernatant, unit inferred. How it is done:
The assay is based on bovine cartilage explants from the metacarpal joint (MCP) with a diameter of 4 mm and a thickness of 1-2 mm. Explants are freshly harvested at the day of slaughter. Before the start of the experiment, explants are incubated in DMEM medium+10% serum+30 μg/ml ascorbic acid for 48 h (200 μl). The pre-incubation is performed to enlarge the assay window. Explants are incubated at 37° C. and 7.5% CO2. The number of replicates for all groups is n=4.
Induction of cartilage degradation is induced by treatment of the explants with IL-1 alpha (10 ng/ml) in serum-free medium for 5 days. As negative control, explants are left untreated in serum-free DMEM medium. This control is not part of the baseline calculation but an internal control for the degree of degradation which is strictly dependent on the IL1-alpha quality. IL-1 alpha induces the activity of proteases such as ADAMTS-5 and MMPs which in turn degrade the matrix. Degradation products of the matrix (GAG: glycosaminoglycan) can be measured in the supernatant. The level of GAG release induced by IL1-alpha is defined as the 0% effect level. […] This DRC is the basis for the IC50 calculation.
IL-1 alpha and the ADAMTS-5 inhibitors are incubated for 5 days, then GAG is measured in the supernatant. The explants are digested with papain to determine the amount of GAG in the explants.
In order to investigate the effect of potential cathepsin D inhibitors on cartilage degradation, a pH-induced model based on bovine explants is used. The pH of the medium in which the explants are cultivated is matched here to the pathophysiological pH of an arthritic knee. This pH is pH 5.5. […] The amount of GAGs liberated can be determined quantitatively with the aid of DMMB (dimethylmethylene blue hydrochloride). If sulfated GAGs are detected using dimethylmethylene blue hydrochloride, the decrease in the absorption at 633 nm is utilised. […] In order to determine the concentration, a calibration line is also recorded using chondroitin sulfate. […]

The next data set in a line: Solubility pH7.4. It is filed as physicochemical. The following applies: pH 7.4, aqueous buffer.
Data set [3] deals with carrageenan-induced inflammation of rat knee joint. As to the kind of experiment: Investigation of the anti-hyperalgesic effect in animals (carrageenan injected intra-articularly into rat knee joint). The class given is in vivo. Particulars: intra-articular administration 30 minutes before CAR. The procedure: In order to induce an inflammation reaction, a carrageenan solution (CAR, 1%, 50 μl) was injected intra-articularly on one side into a rat knee joint. The uninjected side was used for control purposes. Six animals per group were used. The […] was determined by means of a micrometer screw (medial-lateral on the knee joint), and the thermal hyperalgesia was determined by means of a directed infrared light source by the Hargreaves method (Hargreaves et al., 1988) on the sole of the foot. Since the site of inflammation (knee joint) is different from the site of measurement (paw sole), use is made here of the term secondary thermal hyperalgesia, the mechanism of which is of importance for the discovery of effective analge-sics.
Experimental description of thermal hyperalgesia (Hargreaves test): the experimental animal is placed in a plastic chamber on a quartz sheet. Before testing, the experimental animal is firstly given about 5-15 minutes time to familiarise itself with the environment. […] Light reflected by the paw is recorded as long as the experimental animal sits still. Withdrawal of the paw interrupts this reflection, after which the infrared light source is switched off and the time from switching on to switching off is recorded. […]

Turning to `C[C@@H](C[C@H](NC(=O)c1ccc(-c2ccccc2)cc1)C(=O)NC(C)(C)Cc1ccc(F)cc1)C(=O)O` [Compound 5, (2S,4S)-4-[(Biphenyl-4-carbonyl)-amino]-4-[2-(4-fluoro-phenyl)-1,1-dimethyl-ethylcarbamoyl]-2-methyl-butyric acid], the IC50 (in general, the point on the concentration scale where inhibition reaches its midpoint) in data set [1] worked out at 0.085 µM; in data set [2], 1.8 µM. The concentration in solution in the data set “Solubility pH7.4” (solubility) was 0.677 mg/mL (≈ 1380 µM).

Take `CCC[C@@H](C[C@H](NC(=O)c1ccc(-c2ccccc2)cc1)C(=O)NC(C)(C)Cc1ccc(F)cc1)C(=O)O` [Compound 7]: the half-maximal inhibitory concentration (IC50) in data set [1] turned out to be 0.17 µM; in data set [2] it was 1 µM. Moreover, in “Solubility pH7.4”, the solubility – broadly, the dissolved amount per volume that the medium holds – was 0.157 mg/mL (≈ 303 µM).

Consider `COC[C@@H](C[C@H](NC(=O)c1ccc(-c2ccccc2)cc1)C(=O)NC(C)(C)Cc1ccc(F)cc1)C(=O)O` [Compound 8], for which the IC50 worked out at 0.17 µM in data set [1] and 1.2 µM in data set [2]. Also, the concentration in solution in “Solubility pH7.4” (solubility) came to 0.838 mg/mL (≈ 1610 µM).

Regarding `C[C@]12C=CC(=O)C=C1CC[C@H]1[C@@H]3C[C@@H](O)[C@](O)(C(=O)CO)[C@@]3(C)C[C@H](O)[C@@]12F` [TAC, Triamcinolone, reference compound], the CAR-induced swelling result in data set [3] (rat knee joint, TAC 10 μg/joint) is on record as “capable of reducing the CAR-induced swelling”.

For the compound `CC[C@H](C)[C@H](NC(=O)C[C@H](N)[C@H](Cc1ccccc1)NC(=O)[C@@H](NC(=O)[C@H](CC(C)C)NC(=O)CC(C)C)C(C)C)C(=O)N[C@H](C(=O)O)C(C)C` [specific DDR2 inhibitor, (S)-2-[(2S,3S)-2-((3S,4S)-3-amino-4-{(S)-3-methyl-2-[(S)-4-methyl-2-(3-methyl-butyrylamino)pentanoylamino]butyrylamino}-5-phenylpentanoylamino)-3-methylpentanoylamino]-3-methylbutyric acid] (Isovaleryl-LV[X1]IV-OH), in data set [3] (rat, difference in withdrawal times between inflamed and non-inflamed paw), the “thermal hyperalgesia (Hargreaves test)” value is listed as “able to reduce the extent of thermal hyperalgesia as a function of the dose”.
